Data set [1] is described as follows: Drug solubility of free PTL and PTL-loaded nanoparticles. The format is physicochemical. Particulars: phosphate buffer, pH 7.4.
Data set [2] can be described thus: Pharmacokinetic study in albino rats. The data set is classed as in vivo. As to conditions: 10 mg/kg.

Converted amounts (≈) assume the structure as drawn.

Consider one compound from article PMC10018692 (ACS Omega, 2023).

For `CC(=O)O[C@H]1C(=O)[C@@]2(C)[C@H]([C@H](OC(=O)c3ccccc3)[C@]3(O)C[C@H](OC(=O)[C@H](O)[C@@H](NC(=O)c4ccccc4)c4ccccc4)C(C)=C1C3(C)C)[C@]1(OC(C)=O)CO[C@@H]1C[C@@H]2O` [PTL, Paclitaxel], the solubility (usually the dissolved amount per volume that the medium holds) at 24 h in data set [1] is about 4.5 µg/mL (≈ 5.27 µM). For the same compound, in data set [2] (rat, plasma, po), the AUC(0-inf) (as a rule, total exposure, with the tail of the curve extrapolated) was 2980 ± 53.1 ng·h/mL; the AUC(0-t) (usually exposure summed from dosing to a finite time, without extrapolation to infinity) was 2830 ± 56.8 ng·h/mL; the peak level (Cmax) was 239 ± 26.2 ng/mL; the Tmax – broadly, the time from dosing to the highest level – worked out at 2 ± 0.05 h. The half-life (as a rule, how long it takes for the measured level to halve) in data set [2] (rat, plasma, po) is 8.76 ± 1.1 h. In data set [2] (rats), the Kel was 0.072 ± 0.001. Moreover, in data set [2] (rats, HPLC), the “plasma PTL concentration after 12 h” value is “below the HPLC quantification limit”.
